The test system of test [1] is CDC1551(rv1405c′::GFP) reporter Mtb strain. As to the kind of experiment: microbe, parasite or virus in culture. In kind it is cell-based, Mycobacterium tuberculosis. The note with it: Mycobacterium tuberculosis; for activity at 10 µM: read-out: rv1405c'::GFP secondary assay NPA% at 10 µM compound; for activity at 20 µM: read-out: rv1405c'::GFP secondary assay NPA% at 20 µM compound.

The test system of test [2] is CDC1551(rv2390c′::GFP) reporter Mtb strain, response to high [Cl−]. Briefly: microbe, parasite or virus in culture. It is filed as cell-based, Mycobacterium tuberculosis. The note with it: Mycobacterium tuberculosis, 144 h; for activity at 20 µM: read-out: rv2390c'::GFP validation assay NPA% at 20 µM compound.
The mark [3] stands for this setting: pH 6.4, […], DMSO positive control = 100%, read-out: Primary screen rv2390c'::GFP NPA%.
Setting [4] is: 10 µM, pH 6.4, 250 mM NaCl, 6 days, read-out: rv2390c'::GFP validation assay NPA% at 10 µM compound.

Where two headings read alike, the source gives them in different places.

As to `COc1ccc(OC)c(C2CCCN2C(=O)NCc2cccs2)c1` (centres unmarked) [RU-0273525, COC1=CC(C2CCCN2C(=O)NCC2=CC=CS2)=C(OC)C=C1], the activity at 10 µM in test [1] came to 119 ± 11.1%; in test [2] (setting [3]), 150%; in test [2] (setting [4]) it was 158 ± 14.1%. Moreover, the activity at 20 µM in test [1] stood at 184 ± 6.5%; in test [2] (pH 6.4, 250 mM NaCl, 6 days), 232 ± 6.9%.

For the compound `CCc1nnc(NC(=O)c2sc(CC(C)C)nc2C)s1` [RU-0274734, CCC1=NN=C(NC(=O)C2=C(C)N=C(CC(C)C)S2)S1], the activity at 10 µM in test [1] worked out at 97.2 ± 4.2%; in test [2] (setting [3]), 170%; in test [2] (setting [4]) it was 150.7 ± 1.2%. The activity at 20 µM in test [1] was 102 ± 3.9%; in test [2] (pH 6.4, 250 mM NaCl, 6 days), 178 ± 7.2%.

As for `CC(CNC(=O)Nc1cccc(-c2noc(=O)[nH]2)c1)c1ccccc1` (centres unmarked) [RU-0182956, CC(CNC(=O)NC1=CC(=CC=C1)C1=NOC(=O)N1)C1=CC=CC=C1], the activity at 10 µM in test [1] is 38.3 ± 1.6%; in test [2] (setting [3]), 48.1%; in test [2] (setting [4]), 66.7 ± 2.4%. In addition, the activity at 20 µM amounted to 9.7 ± 1.2% in test [1] and 39 ± 3.5% in test [2] (pH 6.4, 250 mM NaCl, 6 days).

On to `CC(SCc1cc(=O)n2nc(N)[nH]c2n1)c1ccccc1Cl` (centres unmarked) [RU-0182827, CC(SCC1=CC(=O)N2N=C(N)NC2=N1)C1=C(Cl)C=CC=C1], for which the activity at 10 µM in test [1] was found to be 6.6 ± 1.1%; in test [2] (setting [3]) it was 11.2%; in test [2] (setting [4]) it was 13.3 ± 4.2%. The activity at 20 µM in test [1] was 9.7 ± 3.1%; in test [2] (pH 6.4, 250 mM NaCl, 6 days), 20 ± 4.4%.

Turning to `Clc1cccc2ccc(CN3CCn4cncc4C3)nc12` [RU-0247165, ClC1=C2N=C(CN3CCN4C=NC=C4C3)C=CC2=CC=C1], the activity at 10 µM in test [1] is 226 ± 14.7%; in test [2] (setting [3]), 219%; in test [2] (setting [4]) it was 132 ± 7.5%. Also, the activity at 20 µM came out at 688.7 ± 3.5% in test [1] and 317 ± 6.7% in test [2] (pH 6.4, 250 mM NaCl, 6 days).

For `Cc1nc(NS(=O)(=O)c2ccc(F)c(F)c2)n(-c2ccc(C#N)cc2)n1` [RU-0203361, CC1=NN(C(NS(=O)(=O)C2=CC(F)=C(F)C=C2)=N1)C1=CC=C(C=C1)C#N], the activity at 10 µM in test [1] was 119 ± 11.5%; in test [2] (setting [3]) it was 152%; in test [2] (setting [4]) it was 121 ± 1.5%. The activity at 20 µM in test [1] stood at 169 ± 13.4%; in test [2] (pH 6.4, 250 mM NaCl, 6 days), 160 ± 15.7%.

As for `Cc1ccc(C(C)NC(=O)Nc2ccc(C#N)c(Cl)c2)o1` (centres unmarked) [RU-0272807, CC(NC(=O)NC1=CC(Cl)=C(C=C1)C#N)C1=CC=C(C)O1], the values for the activity at 10 µM in test [1], in test [2] (setting [3]) and in test [2] (setting [4]) were 90.5 ± 6.1%, 160% and 113 ± 12.8%, respectively. Moreover, the activity at 20 µM in test [1] turned out to be 128 ± 12%; in test [2] (pH 6.4, 250 mM NaCl, 6 days), 133 ± 5.6%.

Take `CCc1nc(C(C#N)C(=O)/C=C/c2ccc(NC(C)=O)cc2)sc1C` (centres unmarked) [RU-0204780, CCC1=C(C)SC(=N1)C(C#N)C(=O)\C=C\C1=CC=C(NC(C)=O)C=C1]: the results for the activity at 10 µM in test [1], in test [2] (setting [3]) and in test [2] (setting [4]) were 127 ± 5.5%, 158% and 112 ± 8.5%, respectively. In addition, the activity at 20 µM in test [1] came to 206 ± 16%; in test [2] (pH 6.4, 250 mM NaCl, 6 days), 140 ± 12.3%.

As for `O=C(c1nccc2ccccc12)N1CCN(CC2CCCC2)CC1` [RU-0257267, O=C(N1CCN(CC2CCCC2)CC1)C1=C2C=CC=CC2=CC=N1], the activity at 10 µM in test [1] stood at 267 ± 23%; in test [2] (setting [3]), 199%; in test [2] (setting [4]) it was 140.3 ± 0.6%. Moreover, the activity at 20 µM in test [1] was 822 ± 58.1%; in test [2] (pH 6.4, 250 mM NaCl, 6 days), 254 ± 8.7%.

Turning to `NC(=O)c1cc2c(cc1-c1cccc(C(F)(F)F)c1)OCO2` [RU-0234167, NC(=O)C1=CC2=C(OCO2)C=C1C1=CC=CC(=C1)C(F)(F)F], the figures for the activity at 10 µM in test [1], in test [2] (setting [3]) and in test [2] (setting [4]) were 201 ± 15%, 343% and 221 ± 6.7%, respectively. Also, the activity at 20 µM stood at 291 ± 18.7% in test [1] and 383 ± 10.4% in test [2] (pH 6.4, 250 mM NaCl, 6 days).

Take `O=S(=O)(Nc1c(F)cccc1F)c1c(Cl)cccc1Cl` [RU-0271471, FC1=CC=CC(F)=C1NS(=O)(=O)C1=C(Cl)C=CC=C1Cl]: the figures for the activity at 10 µM in test [1], in test [2] (setting [3]) and in test [2] (setting [4]) were 32.2 ± 2%, 26% and 46.1 ± 5.6%, respectively. In addition, the activity at 20 µM in test [1] is 13.8 ± 3.7%; in test [2] (pH 6.4, 250 mM NaCl, 6 days), 25.7 ± 1.9%.

As for `COc1ccc(COc2ccccc2NC(C)=O)cc1Br` [RU-0277875, COC1=C(Br)C=C(COC2=C(NC(C)=O)C=CC=C2)C=C1], the activity at 10 µM in test [1] is 139 ± 5.6%; in test [2] (setting [3]), 175%; in test [2] (setting [4]), 138 ± 7.5%. The activity at 20 µM in test [1] was found to be 199 ± 12.2%; in test [2] (pH 6.4, 250 mM NaCl, 6 days) it was 229 ± 11.9%.

On to `CC(C)c1cc(C2CCN(C(=O)c3nc(C(C)C)cs3)CC2)[nH]n1` [RU-0259583, CC(C)C1=CSC(=N1)C(=O)N1CCC(CC1)C1=CC(=NN1)C(C)C], for which the activity at 10 µM turned out to be 81.6 ± 6.6% in test [1], 156% in test [2] (setting [3]) and 103 ± 2.6% in test [2] (setting [4]). Moreover, the activity at 20 µM was found to be 99.6 ± 21.4% in test [1] and 130 ± 8.6% in test [2] (pH 6.4, 250 mM NaCl, 6 days).

For the origin of these results see publication PMC8351955, “Targeting Mycobacterium tuberculosis response to environmental cues for the development of effective antitubercular drugs” (PLoS Biology, 2021).
